Paper PMC4646067 (Biochemistry, 2015)

B1: phosphotransferase protein IIA^Glc of E. coli (natural protein, UniProt P69783 1-169, looked up)
chain: MGLFDKLKSLVSDDKKDTGTIEIIAPLSGEIVNIEDVPDVVFAEKIVGDGIAIKPTGNKMVAPVDGTIGKIFETNHAFSIESDSGVELFVHFGIDTVELKGEGFKRIAEEGQRVKVGDTVIEFDLPLLEEKAKSTLTPVVISNMDEIKELIKLSGSVTVGETPVIRIKK

Columns and labels:
[1] = molecular target: T1, MelBSt (Salmonella enterica, UniProt P30878); assay: Trp→D^2G FRET, displacement of bound D^2G; format: binding; conditions: read-out: RSO membrane vesicles, 10 μM D^2G, 20 mM NaCl, KPi pH 7.5
[2] = molecular target: T2, MelBEc (Escherichia coli, UniProt P02921); assay: isothermal titration calorimetry; format: binding; conditions: purified in 0.01% MNG-3, 20 mM Tris-HCl pH 7.5, 100 mM NaCl, 10% glycerol, 25 °C
T2 sequence (P02921 2-473): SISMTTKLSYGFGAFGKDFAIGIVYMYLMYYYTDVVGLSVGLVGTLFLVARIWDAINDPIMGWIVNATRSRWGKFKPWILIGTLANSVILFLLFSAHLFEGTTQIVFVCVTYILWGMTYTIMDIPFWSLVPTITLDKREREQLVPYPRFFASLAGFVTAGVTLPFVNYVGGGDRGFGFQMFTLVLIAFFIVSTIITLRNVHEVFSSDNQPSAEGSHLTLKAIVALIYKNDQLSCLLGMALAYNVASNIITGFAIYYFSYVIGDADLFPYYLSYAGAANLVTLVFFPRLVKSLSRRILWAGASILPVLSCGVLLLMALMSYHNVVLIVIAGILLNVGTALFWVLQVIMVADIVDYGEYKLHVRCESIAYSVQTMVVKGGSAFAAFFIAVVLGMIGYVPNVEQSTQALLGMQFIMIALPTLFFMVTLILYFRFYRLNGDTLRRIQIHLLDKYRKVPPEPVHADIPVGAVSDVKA

[3] = molecular target: T1, MelBSt; assay: isothermal titration calorimetry; format: binding; conditions: purified in 0.01% MNG-3, 20 mM Tris-HCl pH 7.5, 100 mM NaCl, 10% glycerol, 25 °C
[4] = molecular target: T2, MelBEc; assay: Trp→D^2G FRET, displacement of bound D^2G; format: binding; conditions: read-out: RSO membrane vesicles, 10 μM D^2G, 20 mM NaCl, KPi pH 7.5
[5] = molecular target: MelBSt (Salmonella enterica, UniProt P30878, R295C); conditions: RSO vesicles solubilized with MNG-3, 10 μM D^2G, 20 mM NaCl
[6] = molecular target: WT melibiose permease of Escherichia coli (MelBEc) (Escherichia coli, UniProt P02921 1-473); assay: ITC
[7] = molecular target: R141C mutant of the melibiose permease of Salmonella typhimurium (R141C MelBSt) (Salmonella typhimurium, UniProt P30878 1-476, R141C); assay: ITC

Molecule | IC50 [1] [mM] | Kd [2] [mM] | Kd [3] [mM] | IC50 [4] [µM] | IC50 [5] [mM] | binding result [6] | Kd [7] [nM]
OC[C@H]1O[C@H](OC[C@H]2OC(O)[C@H](O)[C@@H](O)[C@@H]2O)[C@H](O)[C@@H](O)[C@H]1O (stereo partly shown) [melibiose] | 2.42 ± 0.22 | 1.28 ± 0.06 | 2.51 ± 0.13 | 660 ± 160 | 5.49 ± 0.83 |  | 
B1 |  |  |  |  |  | binds | 2000
